Source: the NIST ThermoML archive (doi:10.1021/je7007654)
± gives the expanded uncertainty stated by the source.

Assays:
[1] = xn = mol fraction of the nth substance listed; settings: 101 kPa, Liquid, x1 = 1; for viscosity: Capillary tube (Ostwald / Ubbelohde) method; for speed of sound: Sing-around technique in a fixed-path interferometer
[2] = 101 kPa, Liquid; for viscosity: Capillary tube (Ostwald / Ubbelohde) method; for speed of sound: Sing-around technique in a fixed-path interferometer
[3] = 298.15 K, Vibrating tube method
[4] = 303.15 K, Vibrating tube method
[5] = 308.15 K, Vibrating tube method

CCCCO [butan-1-ol] + CC(C)CCCC(C)CCCC(C)CCCCC(C)CCCC(C)CCCC(C)C
viscosity ([1]; 298.15 K): 2.573 ± 0.016 mPa·s | speed of sound ([1]; 298.15 K): 1240.5 ± 0.8 m/s | mass density [1, 3]: 805.907 ± 0.14 kg/m3 | viscosity ([1]; 303.15 K): 2.275 ± 0.014 mPa·s | speed of sound ([1]; 303.15 K): 1226.5 ± 0.8 m/s | mass density [1, 4]: 803.155 ± 0.14 kg/m3 | viscosity ([1]; 308.15 K): 1.981 ± 0.013 mPa·s | speed of sound ([1]; 308.15 K): 1209.8 ± 0.8 m/s | mass density [1, 5]: 799.249 ± 0.14 kg/m3

CCCCCCCCCCCCCCCC [hexadecane]
mass density ([2]; 298.15 K): 770.456 ± 0.84 kg/m3 | viscosity ([2]; 298.15 K): 3.041 ± 0.023 mPa·s | speed of sound ([2]; 298.15 K): 1338.6 ± 1.2 m/s | mass density ([2]; 303.15 K): 766.981 ± 0.85 kg/m3 | viscosity ([2]; 303.15 K): 2.706 ± 0.02 mPa·s | speed of sound ([2]; 303.15 K): 1320 ± 1.2 m/s | mass density ([2]; 308.15 K): 763.52 ± 0.86 kg/m3 | viscosity ([2]; 308.15 K): 2.409 ± 0.018 mPa·s | speed of sound ([2]; 308.15 K): 1301.7 ± 1.2 m/s

CCCCO [butan-1-ol]
mass density ([2]; 298.15 K): 805.907 ± 0.67 kg/m3 | viscosity ([2]; 298.15 K): 2.573 ± 0.016 mPa·s | speed of sound ([2]; 298.15 K): 1240.5 ± 0.8 m/s | mass density ([2]; 303.15 K): 803.155 ± 0.68 kg/m3 | viscosity ([2]; 303.15 K): 2.275 ± 0.014 mPa·s | speed of sound ([2]; 303.15 K): 1226.5 ± 0.8 m/s | mass density ([2]; 308.15 K): 799.249 ± 0.69 kg/m3 | viscosity ([2]; 308.15 K): 1.981 ± 0.013 mPa·s | speed of sound ([2]; 308.15 K): 1209.8 ± 0.8 m/s

CCCCO [butan-1-ol] + CCCCCCCCCCCCCCCC
viscosity ([1]; 298.15 K): 2.573 ± 0.016 mPa·s | speed of sound ([1]; 298.15 K): 1240.5 ± 0.8 m/s | mass density ([1]; 298.15 K): 805.907 ± 0.67 kg/m3 | viscosity ([1]; 303.15 K): 2.275 ± 0.014 mPa·s | speed of sound ([1]; 303.15 K): 1226.5 ± 0.8 m/s | mass density ([1]; 303.15 K): 803.155 ± 0.68 kg/m3 | viscosity ([1]; 308.15 K): 1.981 ± 0.013 mPa·s | speed of sound ([1]; 308.15 K): 1209.8 ± 0.8 m/s | mass density ([1]; 308.15 K): 799.249 ± 0.69 kg/m3

CC(C)CCCC(C)CCCC(C)CCCCC(C)CCCC(C)CCCC(C)C (stereo not given) [2,6,10,15,19,23-hexamethyltetracosane]
viscosity ([2]; 298.15 K): 28.26 ± 0.18 mPa·s | speed of sound ([2]; 298.15 K): 1381.9 ± 1.2 m/s | mass density [2, 3]: 805.122 ± 0.23 kg/m3 | viscosity ([2]; 303.15 K): 22.09 ± 0.14 mPa·s | speed of sound ([2]; 303.15 K): 1364.1 ± 1.2 m/s | mass density [2, 4]: 801.912 ± 0.24 kg/m3 | viscosity ([2]; 308.15 K): 17.77 ± 0.12 mPa·s | speed of sound ([2]; 308.15 K): 1346.5 ± 1.2 m/s | mass density [2, 5]: 798.709 ± 0.24 kg/m3
